US20140128380A1, “METHODS OF MODULATING THE ACTIVITY OF THE MC1 RECEPTOR AND TREATMENT OF CONDITIONS RELATED TO THIS RECEPTOR” (Mimetica Pty Ltd, priority 2009, published 2014)

Biological target: T1, human MC1R (hMC1R) (Homo sapiens, UniProt Q01726)
T1 construct: purchased Perkin Elmer ES-195-M400UA
Assay: Human MC1R radioligand binding assay (displacement of 125I-labeled NDP-MSH, Perkin Elmer hMC1R membranes)
Details: displacement of [125I]NDP-MSH, compounds tested as trifluoroacetate or hydrochloride salts or free base
Protocol: Assessments of compound binding to human MC1R (hMC1R)) by displacement of an ^125I-labeled NDP-MSH receptor ligand peptide were performed essentially as described in the data sheets produced by Perkin Elmer to accompany their frozen hMC1R membranes (Perkin Elmer catalog number ES-195-M400UA).
[^125I] NDP-MSH: radiolabeled in house and purified by HPLC:
Na ^125I (0.5 mCi, 17.4 Ci/mg) was added to 50 μL sodium phosphate (50 mM, pH 7.4) in an eppendorf tube precoated with IODOGEN. After incubation for 10 mins the phosphate buffer containing the iodine was added to NDP-MSH (10 ul at 1 mg/mL) in a separate eppendorf tube. This was incubated for a further 10 mins. The iodinated NDP-MSH was purified by HPLC on a Zorbax SB 300 column using solvent A: 0.05% TFA and solvent B: 90% acetonitrile 0.045% TFA with a linear gradient, 0-67% B over 60 mins.
Perkin Elmer frozen hMC1 membranes: catalog number ES-195-M400UA, 0.4 mL/vial; 400 microassays/vial, 0.78 mg/mL protein concentration
Vials of frozen membranes were thawed rapidly immediately before use, diluted with binding buffer and vortexed. Resuspended membranes were kept on ice until they were added to the wells of the plate.
Assays were performed in 96 well polypropylene plates. […] This was incubated for 1 hr at 37° C.

T1 sequence (Q01726 whole entry): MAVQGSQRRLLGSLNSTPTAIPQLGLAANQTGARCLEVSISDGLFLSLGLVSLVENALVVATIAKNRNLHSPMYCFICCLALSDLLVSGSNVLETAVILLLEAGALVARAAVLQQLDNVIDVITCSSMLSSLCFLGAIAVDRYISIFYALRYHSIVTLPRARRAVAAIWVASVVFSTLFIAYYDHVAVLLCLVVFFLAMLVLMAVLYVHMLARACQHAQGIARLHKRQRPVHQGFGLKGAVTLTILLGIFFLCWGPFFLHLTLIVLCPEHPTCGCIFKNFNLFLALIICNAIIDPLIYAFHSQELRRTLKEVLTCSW

Compound | IC50
O=C(/C=C/c1ccc(Cl)cc1)NC[C@@H]1CCN(CC(c2ccccc2)c2ccccc2)C(=O)[C@H](CCN2CCCCC2)N1 [Compound 101, (E)-3-(4-chlorophenyl)-N-(((3S,5S)-1-(2,2-diphenylethyl)-2-oxo-3-(2-(piperidin-1-yl)ethyl)-1,4-diazepan-5-yl)methyl)acrylamide] | < 10 µM
CC(C)(NC(=O)/C=C/c1ccc(Cl)cc1)[C@@H]1CCN(CC(c2ccccc2)c2ccccc2)C(=O)[C@H](CCN2CCCCC2)N1 [Compound 165, (E)-3-(4-chlorophenyl)-N-(2-((3S,5S)-1-(2,2-diphenylethyl)-2-oxo-3-(2-(piperidin-1-yl)ethyl)-1,4-diazepan-5-yl)propan-2-yl)acrylamide] | < 10 µM
NC[C@@H]1N[C@H](CNC(=O)/C=C/c2ccc(Cl)cc2)CCN(CC(c2ccccc2)c2ccccc2)C1=O [Compound 133, (E)-N-(((3S,5S)-3-(aminomethyl)-1-(2,2-diphenylethyl)-2-oxo-1,4-diazepan-5-yl)methyl)-3-(4-chlorophenyl)acrylamide] | < 10 µM
N-(((3R,5R)-3-(2-amino-2-methylpropyl)-2-oxo-1-((S)-2-phenylbutyl)-1,4-diazepan-5-yl)methyl)-6-chloro-2-naphthamide [Compound 169] | < 10 µM
CC[C@@H](CN1CC[C@H](CNC(=O)c2ccc3cc(Cl)ccc3c2)N[C@H](CCN2CCCCC2)C1=O)c1ccccc1 [Compound 182, 6-chloro-N-(((3R,5R)-2-oxo-1-((R)-2-phenylbutyl)-3-(2-(piperidin-1-yl)ethyl)-1,4-diazepan-5-yl)methyl)-2-naphthamide] | < 10 µM
CC[C@H](CN1CC[C@@H](CNC(=O)c2ccc3cc(Cl)ccc3c2)N[C@@H](CCN(C(C)=O)C(C)C)C1=O)c1ccccc1 [Compound 180, 6-chloro-N-(((3S,5S)-3-(2-(N-isopropylacetamido)ethyl)-2-oxo-1-((S)-2-phenylbutyl)-1,4-diazepan-5-yl)methyl)-2-naphthamide] | < 10 µM
CN1[C@H](CNC(=O)c2ccc3cc(Br)ccc3c2)CCN(CC(c2ccccc2)c2ccccc2)C(=O)[C@@H]1CCCN [Compound 105, N-(((3S,5S)-3-(3-aminopropyl)-1-(2,2-diphenylethyl)-4-methyl-2-oxo-1,4-diazepan-5-yl)methyl)-6-bromo-2-naphthamide] | < 10 µM
N=C(N)NCCC[C@@H]1N[C@H](CNC(=O)c2cccc(Oc3ccccc3)c2)CCN(CC(c2ccccc2)c2ccccc2)C1=O [Compound 111, N-(((3S,5S)-1-(2,2-diphenylethyl)-3-(b3-guanidinopropyl)-2-oxo-1,4-diazepan-5-yl)methyl)-3-phenoxybenzamide] | < 10 µM
CC(=O)N[C@@H](Cc1c[nH]cn1)C(=O)N[C@@H](Cc1ccccc1)[C@@H]1CCN(CCc2c[nH]c3ccccc23)C(=O)[C@H](CCCNC(=N)N)N1 [Compound 118, (S)—N—((S)-1-((3S,5S)-1-(2-(1H-indol-3-yl)ethyl)-3-(3-guanidinopropyl)-2-oxo-1,4-diazepan-5-yl)-2-phenylethyl)-2-acetamido-3-(1H-imidazol-4-yl)propanamide] | < 10 µM
N=C(N)NCCC[C@@H]1N[C@H](CNC(=O)c2ccc3ccccc3c2)CCN(CC(C(=O)Nc2ccccc2)c2ccccc2)C1=O (stereo partly drawn) [Compound 147, N-(((3S,5S)-3-(3-guanidinopropyl)-2-oxo-1-(3-oxo-2-phenyl-3-(phenylamino)propyl)-1,4-diazepan-5-yl)methyl)-2-naphthamide] | < 10 µM
CC(C)(C)c1ccc(C(=O)NC[C@@H]2CCN(CC(c3ccccc3)c3ccccc3)C(=O)[C@H](CCCNC(=N)N)N2)cc1 [Compound 114, 4-tert-butyl-N-(((3S,5S)-1-(2,2-diphenylethyl)-3-(3-guanidinopropyl)-2-oxo-1,4-diazepan-5-yl)methyl)benzamide] | < 10 µM
NCCC[C@@H]1N[C@H](CNC(=O)/C=C/c2ccc(F)cc2)CCN(CC(c2ccccc2)c2ccccc2)C1=O [Compound 121, (E)-N-(((3S,5S)-3-(3-aminopropyl)-1-(2,2-diphenylethyl)-2-oxo-1,4-diazepan-5-yl)methyl)-3-(4-fluorophenyl)acrylamide] | < 10 µM
N=C(N)NCCC[C@@H]1N[C@H](CNC(=O)c2ccc3ccccc3c2)CCN(c2ccc3ccccc3c2)C1=O [Compound 125, N-(((3S,5S)-3-(3-guanidinopropyl)-1-(naphthalen-2-yl)-2-oxo-1,4-diazepan-5-yl)methyl)-2-naphthamide] | < 10 µM
CC(C)c1ccc(/C=C/C(=O)NC[C@@H]2CCN(CC(c3ccccc3)c3ccccc3)C(=O)[C@H](CCN)N2)cc1 [Compound 156, (E)-N-(((3S,5S)-3-(2-aminoethyl)-1-(2,2-diphenylethyl)-2-oxo-1,4-diazepan-5-yl)methyl)-3-(4-isopropylphenyl)acrylamide] | < 10 µM
NCCCC[C@H]1N[C@H](CNC(=O)c2ccc(-c3ccccc3)cc2)CCN(CCc2ccccc2)C1=O [Compound 184, N-(((3R,5S)-3-(4-aminobutyl)-2-oxo-1-phenethyl-1,4-diazepan-5-yl)methyl)biphenyl-4-carboxamide] | < 10 µM
O=C(NC[C@@H]1CCN(CC(c2ccccc2)c2ccccc2)C(=O)[C@H](CCN2CCCCC2)N1)c1ccc2cc(Cl)ccc2c1 [Compound 154, 6-chloro-N-(((3S,5S)-1-(2,2-diphenylethyl)-2-oxo-3-(2-(piperidin-1-yl)ethyl)-1,4-diazepan-5-yl)methyl)-2-naphthamide] | < 10 µM
NCCC[C@@H]1N[C@H](CNC(=O)c2ccc3ccccc3c2)CCN(CC2(c3ccccc3)CCCCC2)C1=O [Compound 144, N-(((3S,5S)-3-(3-aminopropyl)-2-oxo-1-((1-phenylcyclohexyl)methyl)-1,4-diazepan-5-yl)methyl)-2-naphthamide] | < 10 µM
N=C(N)NCCC[C@@H]1N[C@H](CNC(=O)c2cnc3ccccc3c2)CCN(CC(c2ccccc2)c2ccccc2)C1=O [Compound 109, N-(((3S,5S)-1-(2,2-diphenylethyl)-3-(3-guanidinopropyl)-2-oxo-1,4-diazepan-5-yl)methyl)quinoline-3-carboxamide] | < 10 µM

Continued, values first:

IC50 | Compound
< 10 µM | CC1CCC(C)N1CC[C@@H]1N[C@H](CNC(=O)/C=C/c2ccc(Cl)cc2)CCN(CC(c2ccccc2)c2ccccc2)C1=O (stereo partly drawn) [Compound 160, (E)-3-(4-chlorophenyl)-N-(((3S,5S)-3-(2-(2,5-dimethylpyrrolidin-1-yl)ethyl)-1-(2,2-diphenylethyl)-2-oxo-1,4-diazepan-5-yl)methyl)acrylamide]
< 10 µM | CN(C[C@@H]1CCN(CC(c2ccccc2)c2ccccc2)C(=O)[C@H](CCCN)N1)C(=O)c1ccc2cc(Br)ccc2c1 [Compound 104, N-(((3S,5S)-3-(3-aminopropyl)-1-(2,2-diphenylethyl)-2-oxo-1,4-diazepan-5-yl)methyl)-6-bromo-N-methyl-2-naphthamide]
< 10 µM | CC[C@H](CN1CC[C@H](CNC(=O)c2ccc3cc(Cl)ccc3c2)N[C@H](CCN2CCCCC2)C1=O)c1ccccc1 [Compound 183, 6-chloro-N-(((3R,5R)-2-oxo-1-((S)-2-phenylbutyl)-3-(2-(piperidin-1-yl)ethyl)-1,4-diazepan-5-yl)methyl)-2-naphthamide]
< 10 µM | Cc1ccc(/C=C/C(=O)NC[C@@H]2CCN(CC(c3ccccc3)c3ccccc3)C(=O)[C@H](CCN)N2)c(C)c1 [Compound 157, (E)-N-(((3S,5S)-3-(2-aminoethyl)-1-(2,2-diphenylethyl)-2-oxo-1,4-diazepan-5-yl)methyl)-3-(2,4-dimethylphenyl)acrylamide]
< 10 µM | O=C(/C=C/c1ccc(Br)cc1)NC[C@@H]1CCN(CC(c2ccccc2)c2ccccc2)C(=O)[C@H](CCN2CCCCC2)N1 [Compound 161, (E)-3-(4-bromophenyl)-N-(((3S,5S)-1-(2,2-diphenylethyl)-2-oxo-3-(2-(piperidin-1-yl)ethyl)-1,4-diazepan-5-yl)methyl)acrylamide]
< 10 µM | O=C(/C=C/c1ccc(F)cc1F)NC[C@@H]1CCN(CC(c2ccccc2)c2ccccc2)C(=O)[C@H](CCN2CCCCC2)N1 [Compound 158, (E)-3-(2,4-difluorophenyl)-N-(((3S,5S)-1-(2,2-diphenylethyl)-2-oxo-3-(2-(piperidin-1-yl)ethyl)-1,4-diazepan-5-yl)methyl)acrylamide]
< 1 µM | CC[C@H](CN1CC[C@@H](CNC(=O)c2ccc3cc(Cl)ccc3c2)N[C@@H](CC(C)(C)N2CCCCC2)C1=O)c1ccccc1 [Compound 171, 6-chloro-N-(((3S,5S)-3-(2-methyl-2-(piperidin-1-yl)propyl)-2-oxo-1-((S)-2-phenylbutyl)-1,4-diazepan-5-yl)methyl)-2-naphthamide]
< 10 µM | CC[C@H](CN1CC[C@H](CNC(=O)c2ccc3cc(Cl)ccc3c2)N[C@H](CC(C)(C)N2CCCCC2)C1=O)c1ccccc1 [Compound 172, 6-chloro-N-(((3R,5R)-3-(2-methyl-2-(piperidin-1-yl)propyl)-2-oxo-1-((S)-2-phenylbutyl)-1,4-diazepan-5-yl)methyl)-2-naphthamide]
< 10 µM | N=C(N)NCCC[C@H]1N[C@@H](CNC(=O)c2ccc(-c3ccccc3)cc2)CCN(CC2CCCCC2)C1=O [Compound 176, N-(((3R,5R)-1-(cyclohexylmethyl)-3-(3-guanidinopropyl)-2-oxo-1,4-diazepan-5-yl)methyl)biphenyl-4-carboxamide]
